Test results reported in PubChem BioAssay (NCI).
“And” between values parts separate entries of the source, which are not always exact repeats. Equal values may be shown once.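 Step 1: Grow cells in 96-well plates. Step 2: Expose to compound for 48 hours at 5 concentrations. Step 3: Interpolate endpoints linearly; if unreached, use highest concentration. Abbreviation: GI50, concentration required for 50% inhibition of growth. TGI: concentration producing complete growth inhibition.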

What was measured:
Test in all cases: DTP human tumour cell line panel, 48 h
PC-3 prostate = system: PC-3 prostate
MDA-MB-435 = system: MDA-MB-435
T-47D breast = system: T-47D breast
KM20L2 colon = system: KM20L2 colon
LXFL 529 NSCLC = system: LXFL 529 NSCLC
XF 498 CNS = system: XF 498 CNS
MDA-N = system: MDA-N
HOP-18 NSCLC = system: HOP-18 NSCLC
RXF-631 renal = system: RXF-631 renal

Structure (SMILES) | GI50 (PC-3 prostate) | TGI (PC-3 prostate) [µM] | GI50 (MDA-MB-435) | TGI (MDA-MB-435) | GI50 (T-47D breast) | TGI (T-47D breast) [µM] | TGI (KM20L2 colon) [µM] | TGI (LXFL 529 NSCLC) [µM] | TGI (XF 498 CNS) [µM] | TGI (MDA-N) [µM] | TGI (HOP-18 NSCLC) [µM] | TGI (RXF-631 renal) [µM]
CC(=O)OC1CCC2(C)C(=CCC3C4CC(CN5CC5)C(=O)C4(C)CCC32)C1 (stereo not given) | 12.7 µM | 26.8 | 14.8 µM | 28.4 µM | 0.914 µM | 2.7 | – | – | – | – | – | –
CCOC(=O)C1C(=O)C(=O)N2CCc3c([nH]c4ccccc34)C12 (stereo not given) | – | – | – | – | – | – | > 100 | > 100 | – | – | – | –
CN1C/C(=C\c2ccco2)c2nc(N)nc(-c3ccco3)c2C1 | – | – | – | – | – | – | > 100 | > 100 | 90.2 | – | – | –
CCn1c(SC)nnc1-c1cc2c([nH]c3ccccc32)c(-c2cccc(O)c2)n1 | 2.83 µM | > 100 | 0.248 µM | 0.851 µM | 1.78 µM | 22.5 | – | – | – | – | – | –
O=NNc1nc(-c2ccccn2)nc2ccccc12 | – | > 100 | – | – | – | > 100 | – | – | – | > 100 | – | –
OCCn1c(-c2ccncc2)c(-c2ccc(F)cc2)c2ncccc21 | > 25 µM | > 25 | > 25 µM | > 25 µM | > 25 µM | > 25 | – | – | – | – | – | –
Cc1cc(C2(c3cc(C)c(O)c4ncccc34)OC(=O)c3ccccc32)c2cccnc2c1O | 0.0957 µM | > 100 | – | > 100 µM | – | – | – | – | – | > 100 | – | –
O=C(NCc1cccnc1)c1ccc([N+](=O)[O-])o1 | 2.52 µM | > 19.1 | 1.03 µM | 4.06 µM | 6.9 µM | 32.4 | – | – | – | – | – | –
N#Cc1c(N/N=C/c2c(Cl)cccc2Cl)nc(N)nc1N1CCCC1 | 2.89 µM | 40 | – | – | > 100 µM | > 100 | – | – | – | – | – | –
C/C(=N\NC(=O)c1ccncc1)c1ccccc1O | 8.66 µM | > 100 | 6.37 µM | > 100 µM | 2.24 µM | > 100 | – | – | – | – | – | –
Cc1cc2c(SCc3ccccc3Cl)nc(N)nc2nc1C | – | > 100 | – | > 100 µM | – | > 100 | – | – | – | > 100 | – | –
Nc1nc(N)c(-c2ccccc2)c(C(=O)Nc2nccs2)n1 | – | – | – | – | – | – | > 100 | > 100 | – | – | > 100 | > 100
CC(C)c1nc(Cl)c(Cl)c(Cl)n1 | – | 17.7 | – | 17.2 µM | – | 42.7 | – | – | – | 19 | – | –
CN1CCN(Cc2ccc(NC(=O)c3cncc(C#Cc4cnc5cccnn45)c3)cc2C(F)(F)F)CC1 | 1.44 µM | 5.75 | 1.13 µM | 3.76 µM | 2.2 µM | 11.9 | – | – | – | – | – | –
Oc1ccc(CCNc2nc3ccccc3c3[nH]c4ccccc4c23)cc1 | 1.63 µM | 3.31 | 1.6 µM | 3.16 µM | 1.94 µM | 6.34 | – | – | – | – | – | –
O=C1NC2(CCCCC2)C2=C1CCCCC2 | – | – | – | – | – | – | – | > 100 | > 100 | – | > 100 | –

Structure (SMILES) | GI50 (PC-3 prostate) | TGI (PC-3 prostate) [µM] | GI50 (MDA-MB-435) | TGI (MDA-MB-435) | GI50 (T-47D breast) | TGI (T-47D breast) [µM] | TGI (KM20L2 colon) [µM] | TGI (LXFL 529 NSCLC) [µM] | TGI (XF 498 CNS) [µM] | TGI (MDA-N) [µM] | TGI (HOP-18 NSCLC) [µM] | TGI (RXF-631 renal) [µM]
CN(C)c1ccc(/C=C2\Cc3ccccc3C2=O)cc1Br | – | – | – | – | – | – | > 100 | > 100 | 86.2 | – | – | –
O=[N+]([O-])C1(CO)COC(CCc2ccccc2)OC1 (stereo not given) | – | – | – | – | – | – | > 100 | > 100 | > 100 | – | > 100 | –
Clc1ccc(N=CNc2ccc(-c3nc4ccccc4[nH]3)cc2)cc1 | > 100 µM | > 100 | 6.88 µM | > 100 µM | 42.6 µM | > 100 | – | – | – | – | – | –
CC(C)C12CCC3(CCC4C(C)(C(=O)O)CCCC4(C)C3C1)C(CN)C2 (stereo not given) | – | > 100 | – | > 100 µM | – | > 100 | – | – | – | 84 | – | –
CCNc1nc(-c2ccc(Cl)c(OC)c2)c(-c2ccnc(NCCNS(=O)(=O)c3ccc(Cl)cc3)n2)s1 | 2.99 µM | > 100 | 3.02 µM | 40.6 µM | 2.48 µM | 8.02 | – | – | – | – | – | –
O=C1COc2c(CCNCCN(C(=O)CCNCCc3ccc(Cl)c(Cl)c3)C3CCCCC3)ccc(O)c2N1 | 16 µM | 30.3 | 14.9 µM | 28.5 µM | 17.3 µM | 40.1 | – | – | – | – | – | –
CCC(=C(c1ccc(OCCN(CC)CC)cc1)c1ccc(OCCN(CC)CC)cc1)c1ccc(Cl)cc1 | 0.581 µM | 1.24 | 0.578 µM | 1.07 µM | 0.574 µM | 1.39 | – | – | – | – | – | –
O=[N+]([O-])c1cccc(C2=NOC3CCCC23)c1 (stereo not given) | – | – | – | – | – | – | – | > 100 | – | – | > 100 | –
CC(=O)Nc1ccc(C(=O)COc2cccc(/C=C3\CCc4ccccc4C3=O)c2)cc1 | 10.1 µM | 47.2 | 5.58 µM | 30 µM | 11 µM | 57.2 | – | – | – | – | – | –
CS(=O)(=O)Nc1ccc(Nc2c3ccccc3nc3cc(Cl)ccc23)cc1 | 2.47 µM | 19.4 | 3.48 µM | 17.1 µM | 0.987 µM | 13.3 | – | – | – | – | – | –
Brc1ccc2c(c1)-c1ccccc1C1=NCCN12 | 0.763 µM | 11 | 1.06 µM | 2.45 µM | 2.85 µM | 18.4 | – | – | – | – | – | –
Cc1nc(-c2cccnc2)sc1C(=O)/C=C/c1ccc(Cl)cc1Cl | – | – | – | – | – | – | > 100 | – | – | – | > 100 | –
COc1cc2nccc(Oc3ccc(NC(=O)C4(C(=O)Nc5ccc(F)cc5)CC4)cc3)c2cc1OC | > 10 µM and 3.42 µM | > 100 | 7.54 µM and 2.67 µM | > 10 µM and 21.2 µM | > 10 µM and 4.36 µM | > 100 | – | – | – | – | – | –
COc1cc(/C=C/C(=O)c2c(-c3ccc(Cl)cc3)nc3sc(C)nn23)cc(OC)c1OC | – | – | 12.1 µM | > 100 µM | 2.56 µM | 13.5 | – | – | – | – | – | –
Cc1c(-c2ccc(N3CCc4cccc(C(=O)Nc5nc6ccccc6s5)c4C3)nc2C(=O)O)cnn1CC12CC3CC(CC(C3)C1)C2 | 1.42 µM | 6.15 | 6.77 µM | 28.3 µM | 6.59 µM | 30.7 | – | – | – | – | – | –
COc1cc([C@H]2c3cc(O)c(OC)cc3C[C@]3(O)[C@@H]2CO[C@@H]3O)ccc1O | – | > 100 | – | > 100 µM | – | > 100 | – | – | – | > 100 | – | –
